In ChEMBL document CHEMBL1909046, “DrugMatrix in vitro pharmacology data”:

How the values were obtained:
[1] = target: Kappa-type opioid receptor (Homo sapiens, UniProt P41145); assay: DRUGMATRIX: Opiate kappa (OP2, KOP) radioligand binding (ligand: [3H] Diprenorphine); type: cell membranes, HEK293, Membrane; details: hek293; Not Active = under 50% inhibition at 10 µM
[2] = DRUGMATRIX: Nicotinic Acetylcholine radioligand binding (ligand: [125I] Epibatidine); type: cell membranes, Membrane; details: imr-32; Not Active = under 50% inhibition at 10 µM
[3] = DRUGMATRIX: GABAA, Flunitrazepam, Central radioligand binding (ligand: [3H] Flunitrazepam); type: cell membranes, Rattus norvegicus, Wistar, Brain, Membrane; details: Not Active = under 50% inhibition at 10 µM
[4] = DRUGMATRIX: Glutamate, Kainate radioligand binding (ligand: [3H] Kainic acid); type: cell membranes, Rattus norvegicus, Wistar, Brain, Membrane; details: Not Active = under 50% inhibition at 10 µM
Substance-K receptor = target: T1, Substance-K receptor (Homo sapiens, UniProt P21452); type: cell membranes, CHO, Membrane; details: cho; further: in other assays of this panel Not Active means under 50% inhibition at 10 µM
T1 sequence (P21452 whole entry): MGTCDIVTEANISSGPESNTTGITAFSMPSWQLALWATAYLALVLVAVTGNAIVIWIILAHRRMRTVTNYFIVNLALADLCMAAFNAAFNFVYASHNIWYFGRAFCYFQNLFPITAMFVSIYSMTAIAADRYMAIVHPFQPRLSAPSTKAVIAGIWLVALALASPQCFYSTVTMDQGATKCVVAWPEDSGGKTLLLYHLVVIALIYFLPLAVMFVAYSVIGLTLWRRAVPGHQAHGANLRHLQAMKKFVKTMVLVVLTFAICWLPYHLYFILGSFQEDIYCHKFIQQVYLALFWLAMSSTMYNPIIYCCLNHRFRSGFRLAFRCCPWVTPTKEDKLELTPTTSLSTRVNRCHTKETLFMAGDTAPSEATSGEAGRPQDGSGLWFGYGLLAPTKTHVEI

[5] = DRUGMATRIX: GABAA, Chloride Channel, TBOB radioligand binding (ligand: [3H] TBOB); type: cell membranes, Rattus norvegicus, Wistar, Cerebral cortex, Membrane; details: Not Active = under 50% inhibition at 10 µM
[6] = target: T2, C-C chemokine receptor type 4 (Homo sapiens, UniProt P51679); type: cell membranes, Membrane; details: chem-1; further: in other assays of this panel Not Active means under 50% inhibition at 10 µM
T2 sequence (P51679 whole entry): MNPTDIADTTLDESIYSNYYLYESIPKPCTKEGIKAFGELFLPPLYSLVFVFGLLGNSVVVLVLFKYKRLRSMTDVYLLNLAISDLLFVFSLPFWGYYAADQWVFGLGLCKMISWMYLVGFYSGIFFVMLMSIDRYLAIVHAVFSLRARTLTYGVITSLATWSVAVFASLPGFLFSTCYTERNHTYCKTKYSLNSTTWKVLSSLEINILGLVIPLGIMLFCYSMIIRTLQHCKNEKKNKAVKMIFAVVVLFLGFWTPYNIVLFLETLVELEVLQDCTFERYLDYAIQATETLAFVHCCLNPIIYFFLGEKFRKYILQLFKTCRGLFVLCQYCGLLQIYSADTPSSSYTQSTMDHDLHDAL

[7] = target: Beta-2 adrenergic receptor (Homo sapiens, UniProt P07550); assay: DRUGMATRIX: Adrenergic beta2 radioligand binding (ligand: [3H] CGP-12177); type: cell membranes, Membrane; details: cho; Not Active = under 50% inhibition at 10 µM
Chain of Beta-2 adrenergic receptor (P07550 whole entry): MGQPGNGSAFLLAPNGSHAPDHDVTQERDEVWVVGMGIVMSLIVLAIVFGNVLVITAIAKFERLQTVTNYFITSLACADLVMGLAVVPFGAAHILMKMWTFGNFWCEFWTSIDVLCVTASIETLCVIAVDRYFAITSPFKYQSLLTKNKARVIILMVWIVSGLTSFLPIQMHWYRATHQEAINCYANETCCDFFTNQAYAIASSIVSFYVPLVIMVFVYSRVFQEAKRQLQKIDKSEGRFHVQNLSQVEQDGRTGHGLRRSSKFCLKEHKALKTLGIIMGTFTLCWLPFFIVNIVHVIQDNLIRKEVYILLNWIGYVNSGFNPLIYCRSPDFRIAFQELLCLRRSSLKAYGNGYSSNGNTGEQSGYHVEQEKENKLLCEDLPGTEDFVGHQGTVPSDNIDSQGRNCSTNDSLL

[8] = target: T3, Vasoactive intestinal polypeptide receptor 1 (Homo sapiens, UniProt P32241); type: cell membranes, Membrane; details: ht-29; further: in other assays of this panel Not Active means under 50% inhibition at 10 µM
T3 sequence (P32241 whole entry): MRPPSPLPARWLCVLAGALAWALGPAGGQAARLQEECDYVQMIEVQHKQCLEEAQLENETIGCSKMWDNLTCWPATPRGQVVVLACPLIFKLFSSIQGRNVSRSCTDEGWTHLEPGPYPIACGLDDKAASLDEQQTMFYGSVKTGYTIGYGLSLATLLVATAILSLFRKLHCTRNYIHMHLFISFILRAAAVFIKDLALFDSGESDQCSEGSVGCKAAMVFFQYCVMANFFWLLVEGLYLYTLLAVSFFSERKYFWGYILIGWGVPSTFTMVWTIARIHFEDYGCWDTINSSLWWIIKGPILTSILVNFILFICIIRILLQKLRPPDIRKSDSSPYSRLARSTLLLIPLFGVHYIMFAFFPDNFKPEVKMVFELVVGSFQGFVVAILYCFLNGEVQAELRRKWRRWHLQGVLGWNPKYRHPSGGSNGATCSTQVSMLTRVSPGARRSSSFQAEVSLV

[9] = target: T4, Alpha-2C adrenergic receptor (Homo sapiens, UniProt P18825); assay: DRUGMATRIX: Adrenergic Alpha-2C radioligand binding (ligand: [3H] MK-912); type: cell membranes, Sf9, Membrane; details: sf9
T4 sequence (P18825 whole entry): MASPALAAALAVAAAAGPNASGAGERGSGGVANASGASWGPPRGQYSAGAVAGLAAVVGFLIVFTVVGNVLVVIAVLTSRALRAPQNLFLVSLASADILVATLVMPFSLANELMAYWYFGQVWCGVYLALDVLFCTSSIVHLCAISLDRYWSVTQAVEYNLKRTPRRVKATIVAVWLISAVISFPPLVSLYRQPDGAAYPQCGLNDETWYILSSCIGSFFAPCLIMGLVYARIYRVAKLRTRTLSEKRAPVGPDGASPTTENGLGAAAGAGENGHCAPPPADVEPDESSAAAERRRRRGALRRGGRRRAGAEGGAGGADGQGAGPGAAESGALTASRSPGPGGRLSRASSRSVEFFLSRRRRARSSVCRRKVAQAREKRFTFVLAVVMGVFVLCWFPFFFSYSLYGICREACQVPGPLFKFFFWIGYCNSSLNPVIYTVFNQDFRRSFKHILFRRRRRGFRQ

[10] = DRUGMATRIX: Phosphodiesterase PDE4 enzyme inhibition (substrate: [3H]cAMP + cAMP); details: u-937; Not Active = under 50% inhibition at 10 µM

Chain of Kappa-type opioid receptor (P41145 whole entry): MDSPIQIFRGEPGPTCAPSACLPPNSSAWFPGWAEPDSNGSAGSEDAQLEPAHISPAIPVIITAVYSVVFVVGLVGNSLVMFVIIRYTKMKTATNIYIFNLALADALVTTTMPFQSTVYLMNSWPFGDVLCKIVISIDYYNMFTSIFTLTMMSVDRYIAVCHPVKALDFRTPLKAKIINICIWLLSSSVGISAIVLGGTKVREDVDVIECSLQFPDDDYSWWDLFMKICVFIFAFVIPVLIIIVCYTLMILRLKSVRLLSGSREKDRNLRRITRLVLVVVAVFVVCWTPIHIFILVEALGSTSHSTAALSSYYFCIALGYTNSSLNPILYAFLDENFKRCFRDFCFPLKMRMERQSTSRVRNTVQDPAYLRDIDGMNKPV

CNC(=C[N+](=O)[O-])NCCSCc1ccc(CN(C)C)o1 [RANITIDINE]
Not Active: IC50 [1] | IC50 [2] | Ki [2] | IC50 [3] | Ki [3] | IC50 [4] | Ki [4] | IC50 (Substance-K receptor) | IC50 [5] | Ki [5] | IC50 [6] | IC50 [7] | IC50 [8] | IC50 [9] | IC50 [10] | Ki [10]

CO[C@H]1/C=C/O[C@@]2(C)Oc3c(C)c(O)c4c(c3C2=O)C2=NC3(CCN(CC(C)C)CC3)NC2=C(NC(=O)/C(C)=C\C=C\[C@H](C)[C@H](O)[C@@H](C)[C@@H](O)[C@@H](C)[C@H](OC(C)=O)[C@@H]1C)C4=O [RIFABUTIN]
Not Active: IC50 [1] | IC50 [2] | Ki [2] | IC50 [3] | Ki [3] | IC50 [4] | Ki [4] | IC50 (Substance-K receptor) | IC50 [5] | Ki [5] | IC50 [6] | IC50 [7] | IC50 [8] | IC50 [9] | IC50 [10] | Ki [10]

CC(C)CC(N(C)C)C1(c2ccc(Cl)cc2)CCC1 (stereo not drawn) [SIBUTRAMINE]
Not Active: IC50 [1] | IC50 [2] | Ki [2] | IC50 [3] | Ki [3] | IC50 [4] | Ki [4] | IC50 (Substance-K receptor) | IC50 [5] | Ki [5] | IC50 [6] | IC50 [7] | IC50 [8] | IC50 [9] | IC50 [10] | Ki [10]

[H]/N=C(/N)N[C@H]1[C@H](O)[C@@H](O)[C@H](O[C@@H]2O[C@@H](C)[C@](O)(C=O)[C@H]2O[C@@H]2O[C@@H](CO)[C@H](O)[C@@H](O)[C@@H]2NC)[C@@H](N/C(N)=N\[H])[C@@H]1O [STREPTOMYCIN]
Not Active: IC50 [1] | IC50 [2] | Ki [2] | IC50 [3] | Ki [3] | IC50 [4] | Ki [4] | IC50 (Substance-K receptor) | IC50 [5] | Ki [5] | IC50 [6] | IC50 [7] | IC50 [8] | IC50 [9] | IC50 [10] | Ki [10]

COc1cc(NS(=O)(=O)c2ccc(N)cc2)nc(OC)n1 [SULFADIMETHOXINE]
Not Active: IC50 [1] | IC50 [2] | Ki [2] | IC50 [3] | Ki [3] | IC50 [4] | Ki [4] | IC50 (Substance-K receptor) | IC50 [5] | Ki [5] | IC50 [6] | IC50 [7] | IC50 [8] | IC50 [9] | IC50 [10] | Ki [10]

Cc1cc(C)nc(NS(=O)(=O)c2ccc(N)cc2)n1 [SULFAMETHAZINE]
Not Active: IC50 [1] | IC50 [2] | Ki [2] | IC50 [3] | Ki [3] | IC50 [4] | Ki [4] | IC50 (Substance-K receptor) | IC50 [5] | Ki [5] | IC50 [6] | IC50 [7] | IC50 [8] | IC50 [9] | IC50 [10] | Ki [10]

C[C@]1(Cn2ccnn2)[C@H](C(=O)O)N2C(=O)C[C@H]2S1(=O)=O [TAZOBACTAM]
Not Active: IC50 [1] | IC50 [2] | Ki [2] | IC50 [3] | Ki [3] | IC50 [4] | Ki [4] | IC50 (Substance-K receptor) | IC50 [5] | Ki [5] | IC50 [6] | IC50 [7] | IC50 [8] | IC50 [9] | IC50 [10] | Ki [10]

CN1C(C(=O)Nc2ccccn2)=C(O)c2sccc2S1(=O)=O [TENOXICAM]
Not Active: IC50 [1] | IC50 [2] | Ki [2] | IC50 [3] | Ki [3] | IC50 [4] | Ki [4] | IC50 (Substance-K receptor) | IC50 [5] | Ki [5] | IC50 [6] | IC50 [7] | IC50 [8] | IC50 [9] | IC50 [10] | Ki [10]

O=C1CCC(N2C(=O)c3ccccc3C2=O)C(=O)N1 (stereo not drawn) [THALIDOMIDE]
Not Active: IC50 [1] | IC50 [2] | Ki [2] | IC50 [3] | Ki [3] | IC50 [4] | Ki [4] | IC50 (Substance-K receptor) | IC50 [5] | Ki [5] | IC50 [6] | IC50 [7] | IC50 [8] | IC50 [9] | IC50 [10] | Ki [10]

Cc1cccc(Nc2ccncc2S(=O)(=O)NC(=O)NC(C)C)c1 [TORSEMIDE]
Not Active: IC50 [1] | IC50 [2] | Ki [2] | IC50 [3] | Ki [3] | IC50 [4] | Ki [4] | IC50 (Substance-K receptor) | IC50 [5] | Ki [5] | IC50 [6] | IC50 [7] | IC50 [8] | IC50 [9] | IC50 [10] | Ki [10]

CC(C)C[C@H](NC(=O)[C@@H](O)[C@H](N)Cc1ccccc1)C(=O)O [UBENIMEX]
Not Active: IC50 [1] | IC50 [2] | Ki [2] | IC50 [3] | Ki [3] | IC50 [4] | Ki [4] | IC50 (Substance-K receptor) | IC50 [5] | Ki [5] | IC50 [6] | IC50 [7] | IC50 [8] | IC50 [9] | IC50 [10] | Ki [10]

Cc1onc(-c2ccccc2)c1-c1ccc(S(N)(=O)=O)cc1 [VALDECOXIB]
Not Active: IC50 [1] | IC50 [2] | Ki [2] | IC50 [3] | Ki [3] | IC50 [4] | Ki [4] | IC50 (Substance-K receptor) | IC50 [5] | Ki [5] | IC50 [6] | IC50 [7] | IC50 [8] | IC50 [9] | IC50 [10] | Ki [10]

CC[C@]1(O)C[C@@H]2CN(CCc3c([nH]c4ccccc34)[C@@](C(=O)OC)(c3cc4c(cc3OC)N(C)[C@H]3[C@@](O)(C(=O)OC)[C@H](OC(C)=O)[C@]5(CC)C=CCN6CC[C@]43[C@@H]65)C2)C1 [VINBLASTINE]
Not Active: IC50 [1] | IC50 [2] | Ki [2] | IC50 [3] | Ki [3] | IC50 [4] | Ki [4] | IC50 (Substance-K receptor) | IC50 [5] | Ki [5] | IC50 [6] | IC50 [7] | IC50 [8] | IC50 [9] | IC50 [10] | Ki [10]
